The values that follow come from patent publication US8293768B2, “Organic compounds” (Novartis AG, priority 2006, dated 2012).

Broadly, the melting point is the temperature, or range, at which the solid turns liquid. With `Cc1cc(-n2cnn(CCC3CC3)c2=O)sc1C(=O)NCc1cccnc1` [Example 31.2, 5-(1-(2-cyclopropylethyl)-5-oxo-1H-1,2,4-triazol-4(5H)-yl)-3-methyl-N-(pyridin-3-ylmethyl)thiophene-2-carboxamide], the melting point fell in the range of 148 to 150 °C. The same measure for `Cc1cnc(CNC(=O)c2sc(-n3cnn(Cc4ccc(F)cc4)c3=O)nc2C)cn1` [Example 21.15, 2-(1-(4-fluorobenzyl)-5-oxo-1H-1,2,4-triazol-4(5H)-yl)-4-methyl-N-((5-methylpyrazin-2-yl)methyl)thiazole-5-carboxamide]: 188 to 189 °C. The same measure for `Cc1cc(-c2sc(N3CCN(Cc4ccc(C(F)(F)F)cc4)C3=O)nc2C)on1` [Example 38.3, 1-(4-methyl-5-(3-methylisoxazol-5-yl)thiazol-2-yl)-3-(4-(trifluoromethyl)benzyl)imidazolidin-2-one]: 201 to 203 °C; for `Cc1nc(N2CCN(Cc3ccc(F)cc3)C2=O)sc1C(=O)NCc1ncccn1` [Example 32.16, 2-(3-(4-fluorobenzyl)-2-oxoimidazolidin-1-yl)-4-methyl-N-(pyrimidin-2-ylmethyl)thiazole-5-carboxamide]: 205 to 207 °C; for `Cc1nc(N2CCN(Cc3ccc(OC(F)F)cc3)C2=O)sc1C(=O)NCc1cccnc1` [Example 9.24, 2-(3-(4-(difluoromethoxy)benzyl)-2-oxoimidazolidin-1-yl)-4-methyl-N-(pyridin-3-ylmethyl)thiazole-5-carboxamide]: 166 to 167 °C.

In turn, `Cc1nc(-n2cnn(CC3CC3)c2=O)sc1C(=O)NCc1cccnc1` [Example 21.4, 2-(1-(cyclopropylmethyl)-5-oxo-1H-1,2,4-triazol-4(5H)-yl)-4-methyl-N-(pyridin-3-ylmethyl)thiazole-5-carboxamide] returned a melting point of 116 to 117 °C. To `Cc1nc(-n2ccn(Cc3ccc(F)cc3)c2=O)sc1C(=O)NCc1ccccc1` [Example 17, N-benzyl-2-(3-(4-fluorobenzyl)-2-oxo-2,3-dihydro-1H-imidazol-1-yl)-4-methylthiazole-5-carboxamide] belongs 167 to 168 °C; to `Cc1cc(N2CCN(Cc3ccc(C(=O)O)cc3)C2=O)sc1C(=O)NCc1cccnc1` [Example 56, 4-((3-(4-methyl-5-(pyridin-3-ylmethylcarbamoyl)thiophen-2-yl)-2-oxoimidazolidin-1-yl)methyl)benzoic acid], 120 °C (dec.). With `Cc1nc(N2CCN(CCc3ccccc3)C2=O)sc1C(=O)NCc1ccccc1` [Example 9.11, N-benzyl-4-methyl-2-(2-oxo-3-phenethylimidazolidin-1-yl)thiazole-5-carboxamide], the melting point lay in the range of 156 to 157 °C.

Compound `Cc1nc(-n2cnn(Cc3c(C)noc3C)c2=O)sc1C(=O)NCc1cccnc1` [Example 19.7, 2-(1-((3,5-dimethylisoxazol-4-yl)methyl)-5-oxo-1H-1,2,4-triazol-4(5H)-yl)-4-methyl-N-(pyridin-3-ylmethyl)thiazole-5-carboxamide] displayed a melting point of 233 to 234 °C. Compound `Cc1cnc(CNC(=O)c2sc(N3CCN(Cc4ccc(C(F)(F)F)cc4)C3=O)nc2C)cn1` [Example 9.33, 4-methyl-N-((5-methylpyrazin-2-yl)methyl)-2-(2-oxo-3-(4-(trifluoromethyl)benzyl)imidazolidin-1-yl)thiazole-5-carboxamide] had a melting point of 172 to 173 °C. To `Cc1nc(-n2cn[nH]c2=O)sc1C(=O)NCc1cccnc1` [Example 21.7, 4-methyl-2-(5-oxo-1H-1,2,4-triazol-4(5H)-yl)-N-(pyridin-3-ylmethyl)thiazole-5-carboxamide] belongs 278 to 279 °C; to `COC(=O)c1cccc(CN2CCN(c3nc(C)c(C(=O)NCc4ccccc4)s3)C2=O)c1` [Example 23.9, methyl 3-((3-(5-(benzylcarbamoyl)-4-methylthiazol-2-yl)-2-oxoimidazolidin-1-yl)methyl)benzoate], 49 to 51 °C. With `Cc1ccc(CNC(=O)c2sc(N3CCN(Cc4ccccc4)C3=O)nc2C)o1` [Example 9.10, 2-(3-benzyl-2-oxoimidazolidin-1-yl)-4-methyl-N-((5-methylfuran-2-yl)methyl)thiazole-5-carboxamide], the melting point lay within 138 to 139 °C. In turn, `Cc1nc(N2C(=O)N(CCc3ccc(F)cc3)CC2O)sc1C(=O)NCc1cccnc1` (stereo not drawn) [Example 16.1, 2-(3-(4-fluorophenethyl)-5-hydroxy-2-oxoimidazolidin-1-yl)-4-methyl-N-(pyridin-3-ylmethyl)thiazole-5-carboxamide] showed a melting point of 182 to 184 °C. The same measure for `Cc1nc(N2CCN(CC3CC3)C2=O)sc1C(=O)NCc1ccc(F)cc1` [Example 9.15, 2-(3-(cyclopropylmethyl)-2-oxoimidazolidin-1-yl)-N-(4-fluorobenzyl)-4-methylthiazole-5-carboxamide]: 146 to 147 °C; for `Cc1nc(N2CCN(Cc3ncoc3-c3ccccc3)C2=O)sc1C(=O)NCc1cccnc1` [Example 32.5, 4-methyl-2-(2-oxo-3-((5-phenyloxazol-4-yl)methyl)imidazolidin-1-yl)-N-(pyridin-3-ylmethyl)thiazole-5-carboxamide]: 78 to 81 °C; for `Cc1nc(N2CCN(Cc3ccc(F)cc3)C2=O)sc1C(N)=O` [Example 32.18, 2-(3-(4-fluorobenzyl)-2-oxoimidazolidin-1-yl)-4-methylthiazole-5-carboxamide]: 201 to 203 °C. As to `Cc1nc(-n2cnn(Cc3ccc(F)cc3)c2=O)sc1C(=O)NCc1cn(C)cn1` [Example 21.14, 2-(1-(4-fluorobenzyl)-5-oxo-1H-1,2,4-triazol-4(5H)-yl)-4-methyl-N-((1-methyl-1H-imidazol-4-yl)methyl)thiazole-5-carboxamide], the melting point is 225 to 226 °C. The same measure for `Cc1nc(N2CCN(Cc3ccc(C(F)(F)F)cc3)C2=O)sc1C(=O)NCc1cccnc1` [Example 9.12, 4-methyl-2-(2-oxo-3-(4-(trifluoromethyl)benzyl)imidazolidin-1-yl)-N-(pyridin-3-ylmethyl)thiazole-5-carboxamide]: 107 to 108 °C; for `COC(=O)c1ccc(CN2CCN(c3nc(C)c(C(C)=O)s3)C2=O)cc1` [Example 5.11, methyl 4-((3-(5-acetyl-4-methylthiazol-2-yl)-2-oxoimidazolidin-1-yl)methyl)benzoate]: 174 to 175 °C; for `Cc1nc(N2CCN(Cc3cccc(C(=O)O)c3)C2=O)sc1C(=O)NCc1ccccc1` [Example 25, 3-((3-(5-(benzylcarbamoyl)-4-methylthiazol-2-yl)-2-oxoimidazolidin-1-yl)methyl)benzoic acid]: 120 to 123 °C. As to `CNC(=O)c1ccc(CN2CCN(c3nc(C)c(-c4cc(C)[nH]n4)s3)C2=O)cc1` [Example 40.2, N-methyl-4-((3-(4-methyl-5-(3-methyl-1H-pyrazol-5-yl)thiazol-2-yl)-2-oxoimidazolidin-1-yl)methyl)benzamide], the melting point was in the range of 236 to 238 °C. To `Cc1ncc(CNC(=O)c2sc(N3CCN(Cc4ccc(F)cc4)C3=O)nc2C)s1` [Example 32.12, 2-(3-(4-fluorobenzyl)-2-oxoimidazolidin-1-yl)-4-methyl-N-((2-methylthiazol-5-yl)methyl)thiazole-5-carboxamide] belongs 213 to 215 °C. To `Cc1nc(N2C(=O)N(Cc3ccc(F)cc3)CC2O)sc1C(=O)NCc1ccccc1` (stereo not drawn) [Example 16, N-benzyl-2-(3-(4-fluorobenzyl)-5-hydroxy-2-oxoimidazolidin-1-yl)-4-methylthiazole-5-carboxamide] belongs 133 to 134 °C; to `Cc1nc(N2CCN(Cc3ccc(F)cc3)C2=O)sc1C(=O)NCc1ncco1` [Example 32.11, 2-(3-(4-fluorobenzyl)-2-oxoimidazolidin-1-yl)-4-methyl-N-(oxazol-2-ylmethyl)thiazole-5-carboxamide], 187 to 189 °C. To `Cc1nc(N2CCN(Cc3ccccc3C(F)(F)F)C2=O)sc1C(=O)NCc1ccccc1` [Example 23.1, N-benzyl-4-methyl-2-(2-oxo-3-(2-(trifluoromethyl)benzyl)imidazolidin-1-yl)thiazole-5-carboxamide] belongs 138 to 140 °C. The compound `Cc1nc(N2CCN(CCCc3ccccc3)C2=O)sc1C(=O)NCc1cccnc1` [Example 9.27, 4-methyl-2-(2-oxo-3-(3-phenylpropyl)imidazolidin-1-yl)-N-(pyridin-3-ylmethyl)thiazole-5-carboxamide] showed a melting point of 127 to 128 °C. `Cc1cc(-n2cnn(Cc3ccc(F)cc3)c2=O)sc1C(=O)NCc1ncco1` [Example 31.6, 5-(1-(4-fluorobenzyl)-5-oxo-1H-1,2,4-triazol-4(5H)-yl)-3-methyl-N-(oxazol-2-ylmethyl)thiophene-2-carboxamide] showed a melting point of 163 to 165 °C.

`Cc1nc(-n2cnn(Cc3ccc(C(F)(F)F)cc3)c2=O)sc1C(=O)NCc1cccnc1` [Example 21, 4-methyl-2-(5-oxo-1-(4-(trifluoromethyl)benzyl)-1H-1,2,4-triazol-4(5H)-yl)-N-(pyridin-3-ylmethyl)thiazole-5-carboxamide] gave a melting point of 156 to 158 °C. The same measure for `Cc1nc(N2CCN(Cc3ccc4nonc4c3)C2=O)sc1C(=O)NCc1cccnc1` [Example 32.6, 2-(3-(benzo[c][1,2,5]oxadiazol-5-ylmethyl)-2-oxoimidazolidin-1-yl)-4-methyl-N-(pyridin-3-ylmethyl)thiazole-5-carboxamide]: 110 to 112 °C; for `Cc1csc(N2CCN(Cc3ccc(C(=O)n4nccc4C)cc3)C2=O)n1` [Example 8.8, 1-(4-(5-methyl-1H-pyrazole-1-carbonyl)benzyl)-3-(4-methylthiazol-2-yl)imidazolidin-2-one]: 96 to 97 °C; for `Cc1nc(N2CCN(Cc3ccccc3C(=O)O)C2=O)sc1C(=O)NCc1ccccc1` [Example 25.4, 2-((3-(5-(benzylcarbamoyl)-4-methylthiazol-2-yl)-2-oxoimidazolidin-1-yl)methyl)benzoic acid]: 153 to 156 °C.
